From patent US11338004B2, “Composition for preventing or treating cranial nerve disease comprising fomes fomentarius extract, fraction thereof, or compound isolated therefrom as active ingredient” (priority 2015, dated 2022)

What was measured:
[1] = tested on: TNF-α; assay: TNF-α in LPS-treated BV2 cells; assay type: cell-based, mouse; parameters: unit not given here
Protocol: (§1) A mouse BV2 cell line was stored and maintained in a humidified incubator at 37° C. under a 5% CO2 condition using a DMEM culture medium supplemented with 10% FBS, 100 U/ml of penicillin and 100 μg/ml of streptomycin, was trypsinized, and was subcultured.
(§2) BV2 cells were placed in a 6-well plate at 7.5×10^5 cells/well, and stabilized at 37° C. and 5.0% CO2 for 12 hours. After that, LPS and the Fomes fomentarius CHCl3 fractions, the nonadecanone (2-Nonadecanone) or the docosenol (cis-13-Docosenol) compounds were placed according to groups and were incubated for 1 hour. The cell culture was collected and used for cytokine analysis. All the cell culture was removed, and then 1 ml of dPBS was dispensed to each well to wash and remove the wells. 200 μl of the lysis buffer was dispensed per well and the cells attached to the bottom of the well were removed with a cell scriper, and then were slowly mixed and reacted for […] on ice at 4° C. The cells were removed with a scriper again and all the lysis solution was collected. The collected lysis solution was centrifuged at 15,000 rpm for 15 minutes at 4° C. so that only the supernatant was collected. In order to plot standard curves for protein quantification, a standard BSA solution ([…]) and a dilution were prepared in which bradford solution and D.W. were diluted with 4:1. After the bradford dilution was dispensed in each 200 μl to 96-well, the standard BSA solution and the cell lysis supernatant were dispersed in a volume of 10 μl per well, and then they were mixed by pipetting. After 10 minutes, the protein was quantitated by measuring the absorbance at 595 nm in a reader. The subsequent procedures were carried out in the same manner as in the quantitative analysis of the protein of Example 3-3.

[2] = molecular target: AChE (Homo sapiens, UniProt P22303); assay: Acetylcholinesterase inhibitory activity; assay type: biochemical; details: read-out: acetylcholinesterase inhibitory activity (%)
Sequence of AChE (P22303 32-614): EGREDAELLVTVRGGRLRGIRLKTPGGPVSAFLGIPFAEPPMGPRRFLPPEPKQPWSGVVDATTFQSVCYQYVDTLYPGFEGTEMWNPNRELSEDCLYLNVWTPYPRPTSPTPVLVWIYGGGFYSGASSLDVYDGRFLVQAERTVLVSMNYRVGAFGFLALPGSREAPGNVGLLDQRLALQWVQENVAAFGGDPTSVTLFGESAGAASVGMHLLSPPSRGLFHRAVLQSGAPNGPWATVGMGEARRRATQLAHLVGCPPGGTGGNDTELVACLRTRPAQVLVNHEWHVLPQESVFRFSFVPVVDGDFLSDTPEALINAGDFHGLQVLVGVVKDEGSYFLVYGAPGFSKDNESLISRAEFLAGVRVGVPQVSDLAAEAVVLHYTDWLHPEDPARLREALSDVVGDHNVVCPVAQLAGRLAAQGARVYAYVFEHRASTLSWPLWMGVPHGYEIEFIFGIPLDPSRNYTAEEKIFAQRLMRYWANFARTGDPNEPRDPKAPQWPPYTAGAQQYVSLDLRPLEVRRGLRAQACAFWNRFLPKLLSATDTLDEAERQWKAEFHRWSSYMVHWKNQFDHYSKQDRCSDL
Protocol: AChE and acetylthocholine iodine (ATC) were dissolved in 100 mM phosphate buffer (pH 8.0) to prepare 0.25 U/mL and 75 mM, respectively. […] 2.8 mL of phosphate buffer (100 mM, pH 8.0), 30 μL of AChE (0.25 U/mL), and 100 μL of DTNB were added to 30 μL of the extract, and were mixed. Then, the mixture was preincubated at 37° C. for 10 minutes. Then, 30 μL of substrate ATC was added thereto and was reacted at 37° C. for 3 minutes, and then the absorbance was measured at 412 nm. As a control group, 30 μL of 100 mM phosphate buffer (pH 8.0) was added instead of the extract, and then was measured.

[3] = tested on: IL-1β; assay: IL-1β in LPS-treated BV2 cells; assay type: cell-based, mouse; parameters: unit not given here
Protocol: as §1, §2

[4] = tested on: NF-κB; assay: Western blotting of LPS-induced NF-κB phosphorylation in BV2 cells; assay type: cell-based, mouse
Protocol: as §2

[5] = tested on: IL-6; assay: IL-6 in LPS-treated BV2 cells; assay type: cell-based, mouse; parameters: unit not given here
Protocol: as §1, §2

[6] = DPPH radical scavenging activity
Protocol: The present experiment used the property that the hydrazyl of diphenylpicrylhydrazyl (DPPH) used in the present experiment has a property of easily accepting a hydrogen atom since the nitrogen atom is unstable, so as to react with the antioxidant material to accept the hydrogen atom to lose its own orthochromatism.
(§3) First, in order to measure DPPH radical scavenging activity of the Fomes fomentarius fraction, 1.9 ml of 0.2 mM DPPH solution (99.5% ethanol) was added to 0.1 ml of solutions (control: 99.5% ethanol) in which the concentrated dried material of each Fomes fomentarius substance was prepared at 7 concentrations of 10, 20, 40, 80, 160, 320 and 640 μg/ml, respectively. The mixture was shaken with a vortex mixer for 10 seconds and then incubated at 37° C. for 30 minutes. Then, the absorbance was measured at 517 nm using a spectrophotometer.
As a positive control drug, L-ascorbic acid was prepared at […] of 10, 20, 40, 80, 160, 320, and 640 μg/mL (99.5% ethanol).
The present inventors measured DPPH radicals scavenging activity in the same manner as in Example <2-2> above using nonadecanone (2-nonadecanone) and docosenol (cis-13-Docosenol) compounds found in the above and Fomes fomentarius CHCl3 fraction of the present disclosure.
as §3, with “Acer tegmentosum maxim extract,” for “Fomes fomentarius fraction,”, “Acer tegmentosum maxim material” for “Fomes fomentarius substance”
As a positive control, L-ascorbic acid was prepared at […] of 10, 20, 40, 80, 160, 320, and 640 μg/mL (99.5% ethanol).
as §3, with “berchemia berchemiaefolia extract,” for “Fomes fomentarius fraction,”, “berchemia berchemiaefolia material” for “Fomes fomentarius substance”
as §3, with “Lithospermum erythrorhizon extract,” for “Fomes fomentarius fraction,”, “Lithospermum erythrorhizon material” for “Fomes fomentarius substance”

SMILES | TNF-α level ([1]; 5 μg/ml) | TNF-α level ([1]; 20 μg/ml) | TNF-α level ([1]; 50 μg/ml) | TNF-α level ([1]; 100 μg/ml) | inhibition at 10 µg/mL [2] [%] | inhibition at 20 µg/mL [2] [%] | inhibition at 40 µg/mL [2] [%] | inhibition at 80 µg/mL [2] [%] | inhibition at 160 µg/mL [2] [%] | inhibition at 320 µg/mL [2] [%] | inhibition at 640 µg/mL [2] [%] | IL-1β level ([3]; 5 μg/ml) | IL-1β level ([3]; 20 μg/ml) | IL-1β level ([3]; 50 μg/ml) | IL-1β level ([3]; 100 μg/ml) | p-NF-κB/NF-κB ratio (%), expression ratio (vehicle 100%) ([4]; 5 μg/ml) | p-NF-κB/NF-κB ratio (%), expression ratio (vehicle 100%) ([4]; 20 μg/ml) | p-NF-κB/NF-κB ratio (%), expression ratio (vehicle 100%) ([4]; 50 μg/ml) | IL-6 level ([5]; 5 μg/ml) | IL-6 level ([5]; 20 μg/ml) | further results
CCCCCCCC/C=C\CCCCCCCCCCCCO [docosenol, cis-13-Docosenol] | 60.12±7.4 | 40.58±6.2 | 28.15±4.1 | 22.87±5.6 | 18.1 ± 2.6 | 23.1 ± 3.8 | 28.4 ± 1.9 | 35.9 ± 5.1 | 40.9 ± 6.8 | 55.1 ± 4.9 | 59.6 ± 6.6 | 65.15±7.6 | 59.12±6.1 | 50.55±4.2 | 48.19±5.8 | about 41% | about 28% | about 8% | 301.56±7.6 | 249.35±10.1 | IL-6 level ([5]; 50 μg/ml): 171.68±5.5; IL-6 level ([5]; 100 μg/ml): 138.51±6.8; DPPH radical scavenging activity (% antioxidant activity) ([6]; 10 μg/mL): 1.3±0.4%; DPPH radical scavenging activity (% antioxidant activity) ([6]; 20 μg/mL): 2.6±0.2%; DPPH radical scavenging activity (% antioxidant activity) ([6]; 40 μg/mL): 5.8±0.6%; DPPH radical scavenging activity (% antioxidant activity) ([6]; 80 μg/mL): 7.7±0.6%; DPPH radical scavenging activity (% antioxidant activity) ([6]; 160 μg/mL): 6.6±0.7%; DPPH radical scavenging activity (% antioxidant activity) ([6]; 320 μg/mL): 8.8±1.1%; DPPH radical scavenging activity (% antioxidant activity) ([6]; 640 μg/mL): 10.6±0.9%
CCCCCCCCCCCCCCCCCC(C)=O [nonadecanone, 2-Nonadecanone] | 79.12±4.1 | 70.24±5.0 | 59.56±6.2 | 50.47±3.1 | 11.6 ± 1.1 | 18.9 ± 0.9 | 23.4 ± 2.8 | 30.1 ± 1.8 | 35.1 ± 3.1 | 41.5 ± 2.2 | 41.9 ± 3.8 | 70.12±4.8 | 65.56±5.1 | 58.11±6.5 | 43.66±3.4 | about 35% | about 21% | about 15% | 451.25±6.9 | 441.61±7.1 | p-NF-κB/NF-κB ratio (%), expression ratio (vehicle 100%) ([4]; 100 μg/ml): about 12%; IL-6 level ([5]; 50 μg/ml): 389.64±10.1; IL-6 level ([5]; 100 μg/ml): 351.85±8.7; DPPH radical scavenging activity (% antioxidant activity) ([6]; 10 μg/mL): 5.6±0.9%; DPPH radical scavenging activity (% antioxidant activity) ([6]; 20 μg/mL): 8.9±0.8%; DPPH radical scavenging activity (% antioxidant activity) ([6]; 40 μg/mL): 11.6±1.1%; DPPH radical scavenging activity (% antioxidant activity) ([6]; 80 μg/mL): 13.5±1.4%; DPPH radical scavenging activity (% antioxidant activity) ([6]; 160 μg/mL): 14.6±1.0%; DPPH radical scavenging activity (% antioxidant activity) ([6]; 320 μg/mL): 16.8±2.1%; DPPH radical scavenging activity (% antioxidant activity) ([6]; 640 μg/mL): 20.5±1.8%
